In patent US20260345654A1, “2,8-DIHYDROXYQUINOLINE GLUCURONIDE DERIVATIVES WITH ENHANCED PROPERTIES FOR USE AS ANTICANCER, ANTIVIRAL, ANTIMICROBIAL, AND OTHER THERAPEUTIC APPLICATIONS” (priority 2023, published 2026):
Entries after “also recorded” stand apart in the source; their conditions may differ. Read-outs that look alike come from different tables or passages of the source.

Tests used:
Solubility = settings: for solubility of copper complex: aqueous solutions
[1] = iodinated drug; cited from earlier work
DU-145 cells = test: In vitro anti-proliferation (CellTiter-Glo, 72 hr), DU-145; assay type: cell-based, human; settings: Homo sapiens, DU-145, 72 h, 72 hr, read-out: IC50
Procedure: (§1) Commercially available 8HQ and freshly synthesized G2-8HQ were prepared for in vitro anti-proliferative studies against the following cell lines with and without the presence of 10 μM Cu(+2): (1) A549: […]; (2) BT-549: epithelial cells from ductal tumor; (3) DU-145: human prostate cancer; (4) PANC-1: pancreatic cancer; (5) SU.86.86: a new adoptive pancreatic cell for immunotherapy studies; (6) RL: non-Hodgkin's lymphoma; (7) LnCAP, Prostate cancer cell line; (8) A431, a squamous cell carcinoma line; and (9) UACC-62 a malignant melanoma cell line.
(§2) With regard to the study protocol used, the objective was to conduct a study of the cytotoxicity of W1469 against several cancer cell lines. In the study protocol, preparations for the A549 (Lung) cell line screen are given as an example. The following materials were used: (1) FBS (2) RPMI-1640 medium supplemented with 10% FBS:’ and (3) A549 Cells. The four samples tested are referred to as Items 1-4 below and were placed at 4 °C upon arrival. These four samples were as follows: • Item 1: Tube A (W1469) (500 uM when FBS added) • Item 2: Tube B (W1469g) (1000 uM when FBS added) • Item 3: Tube C (W1469) • Item 4: Tube D (W1469g)
(§3) Add 50 μL of above 2× stocks to appropriate wells to expose appropriate cells to the final dilutions of samples. Add 50 μL media to media and cell control wells and 50 μL media mix to vehicle control wells. Cells are exposed for 72 hr. Following a 72 hr exposure to Sample, perform a CTG assay on all remaining plates.
(§4) At the end of the 72 hr exposure period, remove plates for CellTiter-Glo assay from 37 °C, 5% CO2 incubator and place on the bench at room temperature for 30 mins. Add 100 μL CellTiter-Glo reagent, mix for 2 mins, followed by a further 10 min incubation at room temperature. Record luminescence. Tables showing the resulting plate layouts are included below/

PANC-1 cells = test: In vitro anti-proliferation (CellTiter-Glo, 72 hr), PANC-1; assay type: cell-based; settings: Homo sapiens, PANC-1, 72 h, 72 hr
Procedure: as §1, §2, §3, §4

A549 cells = test: In vitro anti-proliferation (CellTiter-Glo, 72 hr), A549; assay type: cell-based, human; settings: Homo sapiens, A549, 72 h, 72 hr
Procedure: as §1, §2
Items 1 and 2 are sterile ready for the addition of 1 ml of sterile FBS. Final concentrations after addition of 1 ml: 500 μM for Tube A and 1000 μM for Tube B. Items 3 and 4 are described further below. In the protocol, media containing 10% FBS and 20 μM CuCl2 are used in Tubes C and D only. A and B are serially diluted in media with 10% FBS and no added copper.
The protocol method proceeds as follows:
Seed 2, 96-well plates of A549 cells with 5,000 cells per well in a total volume of 50 μL per well. Leave overnight. See plate layout below for which wells to seed with 100 μL of media for media control. The following day, cells are exposed to compounds as described below.
For Items 1 & 2, to make the 500 μM and 1000 μM Stocks of samples 1 and 2 (W1469 and W1469g): Add 1 ml of sterile FBS to each Tube A and Tube B, swirl to mix.
To make appropriate 2× final dilutions of sample 1, Tube A (W1469), the following amounts are used: • 500 μM: 10 mL as supplied • 100 μM: 2 mL 500 μM Sample+8 mL media • 30 μM: 3 mL 100 μM Sample+7 mL media • 10 μM: 3 mL 30 μM Sample+6 mL media • 3 μM: 3 mL 10 μM Sample+7 mL media • 1 μM: 3 mL 3 μM Sample+6 mL media • 0.3 μM: 3 mL 1 μM Sample+7 mL media • 0.1 μM: 3 mL 0.3 μM Sample+6 mL media
To make appropriate 2× final dilutions of sample 2, Tube B (W1469g), the following amounts are used: • 1000 μM: 10 mL as supplied • 300 μM: 3 mL 1000 μM Sample+7 mL media • 100 μM: 3 mL 300 μM Sample+6 mL media • 30 μM: 3 mL 100 μM Sample+7 mL media • 10 μM: 3 mL 30 μM Sample+6 mL media • 3 μM: 3 mL 10 μM Sample+7 mL media • 1 μM: 3 mL 3 μM Sample+6 mL media • 0.3 μM: 3 mL 1 μM Sample+7 mL media
For Items 3 & 4, the following protocol was used to make 1000 uM Stocks of samples 3 and 4 (W1469 and W1469g): • 1: Dissolve 3.37 mg W1469 and excipient (Tube C) in 1 ml RPMI medium without added FBS and copper and swirl briefly until completely dissolved. Add 9 ml of RPMI media containing 10% FBS and 20 uM copper. Swirl to mix. Sterile filter the 10 ml with provided syringes and filters. This is now the 1000 μM stock solution W1469 ready for screening • 2: Dissolve 3.2 mg W1469g and excipient (Tube D) in 1 ml RPMI medium without added FBS and copper and swirl briefly until completely dissolved. […] This is now the 1000 μM stock solution W1469g ready for screening. […]

RL cells = test: In vitro anti-proliferation (CellTiter-Glo, 72 hr), RL; assay type: cell-based; settings: for IC50: 72 hr, read-out: IC50
Procedure: as §1, §2, §3, §4

SU.86.86 cells = test: In vitro anti-proliferation (CellTiter-Glo, 72 hr), SU.86.86; assay type: cell-based; settings: Homo sapiens, SU.86.86, 72 h, 72 hr, read-out: IC50
Procedure: as §1, §2, §3, §4

[2] = tested on: A2780, A549 and MDA-MB-231 cells; settings: cited from earlier work; for improvement with the addition of copper: with vs without copper
BT-549 cells = test: In vitro anti-proliferation (CellTiter-Glo, 72 hr), BT-549; assay type: cell-based; settings: Homo sapiens, BT-549, 72 h, 72 hr, read-out: IC50
Procedure: as §1, §2, §3, §4

RIF tumor = settings: cited from earlier work
[3] = topical treatment of skin cancer; cited from earlier work
Chemical stability = assay type: physicochemical
cancer cell lines = settings: comparison Table 5; prior art compound; cited from earlier work
[4] = comparison Table 5; prior art compound; cited from earlier work
[5] = In vitro anti-proliferation of commercial G8HQ; assay type: cell-based
Procedure: The present inventors obtained a commercial sample of G8HQ and tested it in vitro under conditions with copper added and found a possible reading of >500 uM IC 50, indicating no anti-proliferative activity, but such examination was cursory and not conclusive. Of further relevance, Oliveri 2012 designed an O-linked glucose adducts to the 8-hydroxy position of both 8HQ and CQ (FIG. 17). The resulting pro-drug form as expected abrogated the copper binding and eliminated the anti-cancer activity. […] The authors reasoned that the glucose adduct would improve solubility, and the glucose receptors over-populated on the surface of cancer cells. The anaerobic metabolism and high dependence on glucose that characterizes most cancers is a phenomenon known as the “Warburg Effect”.

[6] = comparison Table 5; prior art compound; cited from earlier work; remark: listed apart in the source
[7] = +Cu (10 μM), G2-8HQ values based on MW of apo form (337)

Oc1ccc2cccc(O)c2n1 [2-8HQ, 2,8-quinolinediol]
solubility (Solubility; water / aqueous): poor aqueous solubility; also recorded: insoluble in aqueous systems

O=C(O)[C@H]1O[C@@H](Oc2cccc3c(I)ccnc23)[C@H](O)[C@@H](O)[C@@H]1O [4-iodo, 8-hydroxy beta-D-glucopyranosiduronic acid]
excretion [1]: mainly urinary

Oc1cccc2cccnc12.[Cu+2] [8HQ copper complex, reference compound]
solubility of copper complex (Solubility): aqueous insoluble

Oc1cccc2cccnc12 [8HQ, 8-hydroxyquinoline, reference compound]
IC50 (DU-145 cells; [7]): 11.6 µM | IC50 (DU-145 cells; −Cu): 11.6 µM | IC50 (PANC-1 cells; [7]): 11.2 µM | IC50 (PANC-1 cells; −Cu): 9.3 µM | IC50 (A549 cells; [7]): 29 µM | IC50 (A549 cells; −Cu): 12.7 µM | IC50 (RL cells; [7]): 0.07 µM | IC50 (RL cells; Homo sapiens, RL, 72 h, +Cu (10 μM), G2-8HQ values based on MW of apo form (337)): 0.06 µM | IC50 (RL cells; Homo sapiens, RL, 72 h, −Cu): 0.62 µM | increase of activity/cytotoxicity in presence of copper (RL cells; RL, +Cu^+2 (10 or 20 μM) vs −Cu): 9 fold | IC50 (SU.86.86 cells; [7]): 46 µM | IC50 (SU.86.86 cells; −Cu): > 50 µM | cytotoxicity change with addition of Cu^+2 ([2]; addition of Cu^+2 to the media): significantly increased the cytotoxicity | activity relative to CQ ([2]; unmodified 8HQ vs CQ): 9 to 27 × | IC50 (BT-549 cells; [7]): 24.5 µM | IC50 (BT-549 cells; −Cu): 9.9 µM | tissue levels of 8-OHQ (RIF tumor; all tissues, 2.0 to 24 hr after glucuronide injection, n = 3): These data points, with n = 3 animals, also failed to show significant tissue levels of 8-OHQ. | solubility (Solubility; DMSO): soluble | solubility (Solubility; water / aqueous): sparingly soluble

NCC(=O)CCC(=O)O [Aminolaevulinic acid (Levulan), Aminolaevulinic acid]
Side Effects [3]: Burning, Itching or Tingling, Rash or redness; also recorded: Light sensitivity (bright lights/sunshine)

O=c1[nH]cc(F)c(=O)[nH]1 [Fluorouracil]
Side Effects [3]: tender skin, serious allergic reaction

O=C(O)[C@H]1O[C@@H](Oc2ccc3cccc(O)c3n2)[C@H](O)[C@@H](O)[C@@H]1O.[Cu+2] [G2-8HQ copper complex]
stability of copper complex (Chemical stability; in excipient, 24 hours): precipitation after 24 hours | stability of copper complex (Chemical stability; pH values less than 8): rapid precipitated insoluble 2-8HQ copper complex | solubility of copper complex (Solubility): highly soluble in aqueous solutions

O=C(O)[C@H]1O[C@@H](Oc2cccc3cccnc23)[C@H](O)[C@@H](O)[C@@H]1O [G8HQ, 8-quinolinyl beta-D-glucopyranosiduronic acid]
Active w/o Cu (cancer) (cancer cell lines): No | Complexes w/copper [4]: No | activity ([5]; in vitro, without acidification): no activity | IC50 ([5]; with copper added, cursory and not conclusive): > 500 µM | Solubility of Cu Complex/aqueous [6]: None | tumor uptake (RIF tumor; after acidification of tumors by hyperglycemia, mice): rapid and significantly increased | retention (RIF tumor; after tumor acidification, mice): prolonged retention in tumor and the colon over all other tissues | tumor or general tissue partitioning (RIF tumor; initial animal experiments, no acidification, mice): no significant tumor or general tissue partitioning | metabolic clearance / elimination time (RIF tumor; mice, post injection, listed as 8GHQ): 3 h

O=C(O)[C@H]1O[C@@H](Oc2cccc3cccnc23)[C@H](O)[C@@H](O)[C@@H]1O [GA8HQ]
Active w/o Cu (cancer) (cancer cell lines): No | Complexes w/copper [4]: No | Solubility of Cu Complex/aqueous [6]: None, (8HQ poor)

OC[C@H]1O[C@@H](Oc2cccc3cccnc23)[C@H](O)[C@@H](O)[C@@H]1O [Glu8HQ, 8-quinolinyl beta-D-glucopyranoside]
activity relative to Glu8CQ ([2]; 20 μM Cu^+2): 10 × | enhancement of IC50 by copper ([2]; 20 μM Cu^+2): 18 × | activity vs CQ analog ([2]; glucose derivatives, FIG. 18): greater activity than the CQ analog (GluCQ) | improvement with the addition of copper [2]: 10-20 fold

OC[C@H]1O[C@@H](Oc2c(I)cc(Cl)c3cccnc23)[C@H](O)[C@@H](O)[C@@H]1O [GluCQ, 5-chloro-7-iodo-8-quinolinyl-β-D-glucopyranoside]
enhancement of IC50 by copper ([2]; 20 μM Cu^+2): 9 × | improvement with the addition of copper [2]: about 2 fold

CC(C)Cn1cnc2c(N)nc3ccccc3c21 [Zyclara, Alara (Imiquimod), Imiquimod]
Side Effects [3]: headache or backpain, Diarrhea; also recorded: Redness, bleeding or flaking skin, swelling,; also recorded: blistering, sting or pain. Fatigue or tiredness,
